{"source": "patent US9212161B2", "about": "“Chiral synthesis of pyrrolidine core compounds en route to neuronal nitric oxide synthase inhibitors” (Northwestern University, priority 2010, dated 2015)", "tested_on": "rabbit fetuses", "assay": "animal tests, rabbit fetuses under hypoxic conditions", "format": "in vivo", "data": [{"compound": "Cc1cc(N)nc(C[C@@H]2CNC[C@@H]2OCCNCCc2cccc(F)c2)c1", "note": "[Compound 1]", "values": [{"measurement": "neurological damage to rabbit fetuses", "value": "remarkable reduction in neurological damage"}]}]}
